The text below walks through data of patent EP0579169B1, “Alkylenediamine derivatives” (NIPPON CHEMIPHAR CO., LTD., priority 1992, dated 1994).

The LD50 is the dose at which mortality reaches 50%. High values mean a less toxic substance, low ones a more toxic substance.

SMILES strings stand for the structures. Some results are limits rather than exact numbers.

Data set [1] concerns rhythmic bladder contraction. Kind of data set: Test for inhibition of urinating contraction of bladder (rhythmic bladder contraction, anesthetized rat, saline infusion into the closed bladder). It is filed as in vivo. Conditions: i.v., urethane-anesthetized male Wistar rat, control (physiological saline) 1.6 min. How it is done:
(I) Test for Inhibition of Urinating Contraction of Bladder
With respect to inhibition of the urinating contraction of bladder, performance of the compound of the present invention was evaluated by the following method.
A male Wistar rat was anesthetized with urethane (1.5 g/kg, s.c.) and fixed on its back on a board. Into the trachea of the rat, a tracheotomy tube was inserted in order to insure an airway, and then midline incisura was carried out to denude the bladder. Subsequently, a small opening was produced on the top of the bladder and the urine was exhausted, and then a polyethylene cannula (diameter: approx. 1 mm) was inserted into the bladder. The urethra and the ureter were tied up to make the bladder a closed system.
By means of an infusion pump, phsiological saline was poured into the bladder of rat at a rate of 0.05 ml/min. induce the rhythmic bladder contraction. Subsequently, intravesical pressure was measured by a pressure transducer and recorded on a pen-writing recorder. The test compound was dissolved in physiological saline and then administered into the femoral vein through a polyethylene cannula.
Performance for inhibiting the urinary bladder contraction was evaluated by measuring the period (inhibiting period) in which the rhythmic bladder contraction was inhibited. As the medicament, each of the compounds obtained in Examples was used.

Data set [2] concerns mouse. Description: Toxicity, LD50 by the up-and-down method. In kind it is in vivo. Conditions: i.v. From the text:
(§1) With respect to toxicity of the compounds of the invention, each LD50 (mg/kg) measured by the up-and-down method is also set forth in Table 1.

Data set [3] can be described thus: Toxicity, LD50 by the up-and-down method. Conditions: mouse, in vivo, iv. In kind it is in vivo.
Source text: as §1

In data set [4] the test system is Urinary bladder strips. Description: Effect on isolated urinary bladder smooth muscle (contraction elicited by acetylcholine or norepinephrine). Also on record: species or system male Japanese white rabbits. Conditions: rabbit urinary bladder strips, Krebs solution 37°C; pretreatment five minutes before, concentration 1x10^-5 to 3x10^-5 (unit not given). How it is done:
(II) Effect on Isolated Urinary Bladder Smooth Muscle
Urinary bladder strips were obtained from male Japanese white rabbits (weight: 2.00-2.80 kg). Each strip was suspended in an organ bath containing Krebs solution. The organ bath was maintained at 37°C and constantly gassed with carbogen. Cumulative concentration-response curves of acetylcholine and norepinephrine were obtained.
The compound to be tested (compound of Example 2 (i.e., 5-benzyl-3-(3-morpholino-1-phenylpropyl)-1,3-oxazolidin-2-one fumarate) was introduced into the Krebs solution five minutes prior to the introduction of acetylcholine or norepinephrine to elicit the contractive action.
Therefore, it has been confirmed that the tested compound depresses the bladder contraction not by acting on the peripheral nerves system but on the central nurves system.

With `O=C(O)/C=C/C(=O)O.O=C1OC(Cc2ccccc2)CN1C(CCN1CCOCC1)c1ccccc1` (single isomer, unassigned; (+)) [Example 4, (+)-5-Benzyl-3-(3-morpholino-1-phenylpropyl)-1,3-oxazolidin-2-one fumarate], in data set [1] (dose 8 mg/kg, fumarate), the “Period (inhibiting period in which the rhythmic bladder contraction was inhibited)” value was determined as 3.8 min. Besides, the LD50/mouse in data set [2] (fumarate) is 77 mg/kg.
Take `O=C(O)/C=C/C(=O)O.O=C1OC(CCc2ccccc2Cl)CN1C(CCN1CCOCC1)c1ccccc1` (single isomer, unassigned) [Example 27, 5-[2-(2-Chlorophenyl)ethyl]-3-(3-morpholino-1-phenylpropyl)-1,3-oxazolidin-2-one fumarate]: the “Period (inhibiting period in which the rhythmic bladder contraction was inhibited)” value in data set [1] (dose 8 mg/kg) was found to be 8.0 min. The median lethal dose (LD50) in data set [3] was 75 mg/kg.
Regarding `O=C(O)/C=C/C(=O)O.O=C1OC(CCc2ccccc2)CN1C(CCN1CCOCC1)c1ccccc1` (single isomer, unassigned) [Example 50, 3-(3-Morpholino-1-phenylpropyl)-5-(2-phenylethyl)-1,3-oxazolidin-2-one fumarate], in data set [1] (dose 5 mg/kg), the “Period (inhibiting period in which the rhythmic bladder contraction was inhibited)” value was found to be 7.5 min. The LD50 in data set [3] was 45 mg/kg.
As for `O=C(O)/C=C/C(=O)O.O=C1OC(Cc2ccccc2)CN1C(CCN1CCOCC1)c1ccccc1` (single isomer, unassigned; (-)) [Example 3, (-)-5-Benzyl-3-(3-morpholino-1-phenylpropyl)-1,3-oxazolidin-2-one fumarate], the “Period (inhibiting period in which the rhythmic bladder contraction was inhibited)” value in data set [1] (dose 8 mg/kg, fumarate) turned out to be 6.0 min. In data set [2] (fumarate), this compound showed an LD50/mouse of 49 mg/kg.
As to `CS(=O)(=O)O.O=C1OC(Cc2cccc3ccccc23)CN1C(CCN1CCOCC1)c1ccccc1` (single isomer, unassigned) [Example 46, 5-(1-Naphthyl)methyl-3-(3-morpholino-1-phenylpropyl)-1,3-oxazolidin-2-one mesylate], the “Period (inhibiting period in which the rhythmic bladder contraction was inhibited)” value in data set [1] (dose 5 mg/kg) was found to be 6.0 min. The compound also displayed an LD50 in data set [3] of over 20 mg/kg.
As for `O=C(O)/C=C/C(=O)O.O=C1OC(Cc2ccccc2Br)CN1C(CCN1CCOCC1)c1ccccc1` (single isomer, unassigned) [Example 13, 5-(2-Bromophenyl)methyl-3-(3-morpholino-1-phenylpropyl)-1,3-oxazolidin-2-one fumarate], the “Period (inhibiting period in which the rhythmic bladder contraction was inhibited)” value in data set [1] (dose 5 mg/kg) was 6.5 min. This compound also yielded an LD50 in data set [3] of 48 mg/kg.
Consider `O=C(O)/C=C/C(=O)O.O=C1OC(Cc2ccccc2)CN1C(CCN1CCOCC1)c1ccccc1` (single isomer, unassigned) [Example 2, 5-Benzyl-3-(3-morpholino-1-phenylpropyl)-1,3-oxazolidin-2-one fumarate], for which the “Period (inhibiting period in which the rhythmic bladder contraction was inhibited)” value in data set [1] (dose 8 mg/kg, fumarate) stood at 5.4 min. The LD50 in data set [3] amounted to 76 mg/kg. Further, in data set [4], the “action on the contraction caused by acetylcholine” value is listed as “did not give any effective action” and the “action on the contraction caused by norepinepherine” value was “did not give any effective action”.
As for `O=C(O)/C=C/C(=O)O.O=C1COC(Cc2ccccc2Br)CN1C(CCN1CCOCC1)c1ccccc1` (single isomer, unassigned) [Example 70, 2-(2-Bromobenzyl)-4-(3-morpholino-1-phenylpropyl)-5-morpholinone fumarate], the “Period (inhibiting period in which the rhythmic bladder contraction was inhibited)” value in data set [1] (dose 6 mg/kg) is 1.5 min. The compound further yielded an LD50 in data set [3] of over 60 mg/kg.
Consider `O=C1OC(Cc2ccccc2)CN1C(CCN1CCOCC1)c1cccs1` (single isomer, unassigned) [Example 61, 5-Benzyl-3-[3-morpholino-1-(2-thienyl)propyl]-1,3-oxazolidin-2-one], for which the “Period (inhibiting period in which the rhythmic bladder contraction was inhibited)” value in data set [1] (dose 6 mg/kg) came out at 6.5 min. The same compound had a 50% lethal dose (LD50) in data set [3] of 59 mg/kg.
In the case of `O=C(O)/C=C/C(=O)O.O=C1OC(CCc2ccccc2Br)CN1C(CCN1CCOCC1)c1ccccc1` (single isomer, unassigned) [Example 25, 5-[2-(2-bromophenyl)ethyl]-3-(3-morpholino-1-phenylpropyl)-1,3-oxazolidin-2-one fumarate], the “Period (inhibiting period in which the rhythmic bladder contraction was inhibited)” value in data set [1] (dose 8 mg/kg) came to 7.5 min. Besides, in data set [3], the LD50 was found to be 79 mg/kg.
In the case of `O=C(O)/C=C/C(=O)O.O=C1OC(Cc2cccs2)CN1C(CCN1CCOCC1)c1ccccc1` (single isomer, unassigned) [Example 56, 3-(3-Morpholino-1-phenylpropyl)-5-(2-thenyl)-1,3-oxazolidin-2-one fumarate], the “Period (inhibiting period in which the rhythmic bladder contraction was inhibited)” value in data set [1] (dose 11 mg/kg) was 4.7 min. In addition, in data set [2] (fumarate), the LD50/mouse came to 111 mg/kg.
Turning to `O=C(O)/C=C/C(=O)O.O=C1OCC(Cc2ccccc2)N1C(CCN1CCOCC1)c1ccccc1` (single isomer, unassigned) [Example 69, 4-Benzyl-3-(3-morpholino-1-phenylpropyl)-1,3-oxazolidin-2-one fumarate], the “Period (inhibiting period in which the rhythmic bladder contraction was inhibited)” value in data set [1] (dose 8 mg/kg) is 6.6 min. The same compound came in with an LD50 in data set [3] of 76 mg/kg.
Take `O=C1OC(Cc2ccccc2)CN1C(CCN1CCOCC1)c1cccs1` (single isomer, unassigned) [Example 62, 5-Benzyl-3-[3-morpholino-1-(2-thienyl)propyl]-1,3-oxazolidin-2-one]: the “Period (inhibiting period in which the rhythmic bladder contraction was inhibited)” value in data set [1] (dose 6 mg/kg) came out at 7.2 min. The same compound returned an LD50/mouse in data set [2] of 63 mg/kg.
On to `CC(C)CC1COC(=O)N1C(CCN1CCOCC1)c1ccccc1.O=C(O)/C=C/C(=O)O` (single isomer, unassigned) [Example 67, 4-Isobutyl-3-(3-morpholino-1-phenylpropyl)-1,3-oxazolidin-2-one fumarate], for which the “Period (inhibiting period in which the rhythmic bladder contraction was inhibited)” value in data set [1] (dose 14 mg/kg) is 3.5 min. The LD50 in data set [3] turned out to be 137 mg/kg.
For the compound `O=C(O)/C=C/C(=O)O.O=C1OC(Cc2cccs2)CN1C(CCN1CCOCC1)c1ccccc1` (single isomer, unassigned) [Example 55, 3-(3-Morpholino-1-phenylpropyl)-5-(2-thenyl)-1,3-oxazolidin-2-one fumarate], the “Period (inhibiting period in which the rhythmic bladder contraction was inhibited)” value in data set [1] (dose 8 mg/kg) was 4.6 min. This compound yielded a median lethal dose (LD50) in data set [3] of 84 mg/kg.
